Reference: patent US11015216B2, “Substituted imidazo[1,2-a]pyrazines as luciferase substrates” (PROMEGA CORPORATION, priority 2016, dated 2021)

Tests used:
luciferase = experiment: Additional luciferase substrate assay, compared to known analogue C-1 (Table 3); format: biochemical; details: relative to C-1 (=1)
Protocol: (§1) Luminescence Assay Procedure: Each compound to be screened was dissolved in DMSO (5 mM) and then further diluted to 100 uM in NANO-GLOR Luciferase Assay Buffer. Each diluted substrate was then combined in equal volumes with purified NanoLuc® Luciferase diluted into CO2 independent media+10% FBS. Initial light output for each substrate was measured in a GloMax®-Multi+ luminometer three minutes after substrate addition and then at five minute intervals as a means to determine signal half-life.
The compounds of formula (I) were also evaluated for their ability to be luciferase substrates in an additional assay.

NanoLuc® Luciferase = NanoLuc® Luciferase (Oplophorus gracilirostris, UniProt Q9GV45, A31E/A60N/A81I/F95D/I117V/K70R/L54V/L99Q/M102K/N193R/P142E/Q151K/Q38R/Q45L/V71I/Y165I); format: biochemical; details: ratio to coelenterazine (=1); for I (relative light units, ratio in comparison to native coelenterazine): initial light output three minutes after substrate addition; for Half-life (signal half-life, ratio in comparison to native coelenterazine): read at five minute intervals
Protocol: as §1
A subset of the synthesized coelenterazine analogues (compounds of formula (I)) were evaluated for their suitability as luciferase substrates. NANOLUC® luciferase was employed for the screening because it is a small (19 kDa), stable, and particularly bright enzyme.

Sequence of NanoLuc® Luciferase (Q9GV45 other isoform, or with tags, fused parts or gaps with the stated changes): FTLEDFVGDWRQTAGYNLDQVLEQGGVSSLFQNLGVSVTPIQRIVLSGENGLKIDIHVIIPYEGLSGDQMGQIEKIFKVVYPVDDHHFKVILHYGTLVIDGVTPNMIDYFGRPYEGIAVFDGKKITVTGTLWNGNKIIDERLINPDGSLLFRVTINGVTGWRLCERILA

Row | SMILES | RLU (@100 uM) (luciferase) | I (relative light units, ratio in comparison to native coelenterazine) (NanoLuc® Luciferase) | Half-life (signal half-life, ratio in comparison to native coelenterazine) (NanoLuc® Luciferase)
1 | CCOP(=O)(OCC)c1nc2c(Cc3ccccc3)[nH]c(-c3ccccc3)cn-2c1=O [Compound 1, diethyl (8-benzyl-3-oxo-6-phenyl-3,7-dihydroimidazo[1,2-a]pyrazin-2-yl)phosphonate] | 0.00048 |  | 
2 | O=c1c(Cc2ccc(F)cc2)nc2c(Cc3ccccc3)[nH]c(-c3ccccc3)cn1-2 [Compound 2] | 0.96 | 40 | 0.16
3 | O=c1c(Cc2ccc(F)cc2F)nc2c(Cc3ccccc3)[nH]c(-c3ccccc3)cn1-2 [Compound 3] | 0.93 | 38.75 | 0.23
4 | O=c1c(Cc2ccc3ccccc3c2)nc2c(Cc3ccccc3)[nH]c(-c3ccccc3)cn1-2 [Compound 4] | 0.22 | 9.166 | 0.72
5 | CC(C)(C)c1ccc(Cc2nc3c(Cc4ccccc4)[nH]c(-c4ccccc4)cn-3c2=O)cc1 [Compound 5] | 0.093 | 3.875 | 0.43
6 | O=c1c(Cc2cc3ccccc3s2)nc2c(Cc3ccccc3)[nH]c(-c3ccccc3)cn1-2 [Compound 6] | 0.33 | 13.75 | 0.33
7 | O=c1c(Cc2csc3ccccc23)nc2c(Cc3ccccc3)[nH]c(-c3ccccc3)cn1-2 [Compound 7] | 0.1 | 4.166 | 0.52
8 | COc1ccc(Cc2nc3c(Cc4ccccc4)[nH]c(-c4ccccc4)cn-3c2=O)cc1 [Compound 8] | 0.56 | 23.333 | 0.38
9 | Nc1ccc(Cc2nc3c(Cc4ccccc4)[nH]c(-c4ccccc4)cn-3c2=O)cc1 [Compound 9] | 0.025 | 1.041 | 0.93
10 | O=C(O)c1ccc(Cc2nc3c(Cc4ccccc4)[nH]c(-c4ccccc4)cn-3c2=O)cc1 [Compound 10] | 0.0034 | 0.142 | 1.02
11 | Cn1nnc2cc(Cc3nc4c(Cc5ccccc5)[nH]c(-c5ccccc5)cn-4c3=O)ccc21 [Compound 11] | 0.0072 | 0.3 | 1.04
12 | COc1cccc(Cc2nc3c(Cc4ccccc4)[nH]c(-c4ccccc4)cn-3c2=O)c1 [Compound 17] | 0.83 |  | 
13 | COc1cc(Cc2nc3c(Cc4ccccc4)[nH]c(-c4ccccc4)cn-3c2=O)ccc1F [Compound 18] | 0.4 |  | 
14 | COc1ccc(Cc2nc3c(Cc4ccccc4)[nH]c(-c4ccccc4)cn-3c2=O)cc1F [Compound 21] | 0.32 |  | 
15 | CC(C)(C)OC(=O)Nc1cccc(Cc2nc3c(Cc4ccccc4)[nH]c(-c4ccccc4)cn-3c2=O)c1 [Compound 23] | 0.001 |  | 
16 | COc1ccc(Cc2nc3c(Cc4ccccc4)[nH]c(-c4ccccc4)cn-3c2=O)s1 [Compound 24] | 0.68 |  | 
17 | Nc1cccc(Cc2nc3c(Cc4ccccc4)[nH]c(-c4ccccc4)cn-3c2=O)c1 [Compound 25] | 0.15 |  | 
18 | O=c1c(Cc2ccc(-c3ccccc3)cc2)nc2c(Cc3ccccc3)[nH]c(-c3ccccc3)cn1-2 [Compound 26] | 0.046 |  | 
19 | O=c1c(CC2=Cc3ccccc3OC2)nc2c(Cc3ccccc3)[nH]c(-c3ccccc3)cn1-2 [Compound 27] | 0.1 |  | 

Row | SMILES | RLU (@100 uM) (luciferase) | I (relative light units, ratio in comparison to native coelenterazine) (NanoLuc® Luciferase) | Half-life (signal half-life, ratio in comparison to native coelenterazine) (NanoLuc® Luciferase)
20 | O=c1c(Cc2cccc3c2oc2ccccc23)nc2c(Cc3ccccc3)[nH]c(-c3ccccc3)cn1-2 [Compound 28] | 0.01 |  | 
21 | O=c1c(C/C=C/c2ccccc2)nc2c(Cc3ccccc3)[nH]c(-c3ccccc3)cn1-2 [Compound 29] | 0.13 |  | 
22 | CC(C)(C)OC(=O)Nc1ccc(Cc2nc3c(Cc4ccccc4)[nH]c(-c4ccccc4)cn-3c2=O)cc1 [Compound 30] | 0.001 |  | 
23 | C=CCOc1ccc(Cc2nc3c(Cc4ccccc4)[nH]c(-c4ccccc4)cn-3c2=O)cc1OC [Compound 31] | 0.054 |  | 
24 | COc1cc(Cc2nc3c(Cc4ccccc4)[nH]c(-c4ccccc4)cn-3c2=O)ccc1O [Compound 32] | 0.052 |  | 
25 | Cn1cnnc1Sc1ccc(Cc2nc3c(Cc4ccccc4)[nH]c(-c4ccccc4)cn-3c2=O)o1 [Compound 33] | 0.017 |  | 
26 | O=c1c(Cc2ccc(-c3ccccn3)s2)nc2c(Cc3ccccc3)[nH]c(-c3ccccc3)cn1-2 [Compound 34] | 0.02 |  | 
27 | CCCCCCCCCCCCc1nc2c(Cc3ccccc3)[nH]c(-c3ccccc3)cn-2c1=O [Compound 35] | 0.0005 |  | 
28 | O=c1c(Cc2ccncc2)nc2c(Cc3ccccc3)[nH]c(-c3ccccc3)cn1-2 [Compound 36] | 0.0017 |  | 
29 | O=c1c(Cc2ccc(C3CCCCC3)s2)nc2c(Cc3ccccc3)[nH]c(-c3ccccc3)cn1-2 [Compound 37] | 0.05 |  | 
30 | O=c1c(Cc2ccc(-c3cccs3)s2)nc2c(Cc3ccccc3)[nH]c(-c3ccccc3)cn1-2 [Compound 38] | 0.054 |  | 
31 | CC(C)Cc1ccc(Cc2nc3c(Cc4ccccc4)[nH]c(-c4ccccc4)cn-3c2=O)s1 [Compound 39] | 0.29 |  | 
32 | Cn1nc(-c2ccc(Cc3nc4c(Cc5ccccc5)[nH]c(-c5ccccc5)cn-4c3=O)s2)cc1C(F)(F)F [Compound 40] | 0.0042 |  | 
33 | O=c1c(Cc2ccc(C(F)(F)F)o2)nc2c(Cc3ccccc3)[nH]c(-c3ccccc3)cn1-2 [Compound 41] | 0.82 |  | 
34 | COCc1ccc(Cc2nc3c(Cc4ccccc4)[nH]c(-c4ccccc4)cn-3c2=O)o1 [Compound 42] | 0.52 |  | 
35 | O=c1c(Cc2c(F)c(F)c(F)c(F)c2F)nc2c(Cc3ccccc3)[nH]c(-c3ccccc3)cn1-2 [Compound 43] | 0.052 |  | 
36 | O=c1c(Cc2cc(C(F)(F)F)cc(C(F)(F)F)c2)nc2c(Cc3ccccc3)[nH]c(-c3ccccc3)cn1-2 [Compound 44] | 0.019 |  | 
37 | Cn1nc(C(F)(F)F)c(Cc2nc3c(Cc4ccccc4)[nH]c(-c4ccccc4)cn-3c2=O)c1Cl [Compound 45] | 0.0012 |  | 
38 | O=C(O)c1cccc(Cc2nc3c(Cc4ccccc4)[nH]c(-c4ccccc4)cn-3c2=O)c1 [Compound 47] | 0.013 |  | 

Row | SMILES | RLU (@100 uM) (luciferase) | I (relative light units, ratio in comparison to native coelenterazine) (NanoLuc® Luciferase) | Half-life (signal half-life, ratio in comparison to native coelenterazine) (NanoLuc® Luciferase)
39 | NCc1cccc(Cc2nc3c(Cc4ccccc4)[nH]c(-c4ccccc4)cn-3c2=O)c1 [Compound 48] | 0.0013 |  | 
40 | CS(=O)(=O)Nc1cccc(Cc2nc3c(Cc4ccccc4)[nH]c(-c4ccccc4)cn-3c2=O)c1 [Compound 49] | 0.002 |  | 
41 | COCc1cc(Cc2nc3c(Cc4ccccc4)[nH]c(-c4ccccc4)cn-3c2=O)ccc1OC [Compound 50] | 0.023 |  | 
42 | CN(C)c1cccc(Cc2nc3c(Cc4ccccc4)[nH]c(-c4ccccc4)cn-3c2=O)c1 [Compound 51] | 0.49 |  | 
43 | COCc1ccc(Cc2nc3c(Cc4ccccc4)[nH]c(-c4ccccc4)cn-3c2=O)s1 [Compound 52] | 0.45 |  | 
44 | COCc1cccc(Cc2nc3c(Cc4ccccc4)[nH]c(-c4ccccc4)cn-3c2=O)c1 [Compound 53] | 0.47 |  | 
45 | O=c1c(Cc2cccc(CO)c2)nc2c(Cc3ccccc3)[nH]c(-c3ccccc3)cn1-2 [Compound 54] | 0.04 |  | 
46 | CCCSc1ncc(Cc2nc3c(Cc4ccccc4)[nH]c(-c4ccccc4)cn-3c2=O)cn1 [Compound 56] | 0.0098 |  | 
47 | COc1ccc(Cc2nc3c(Cc4ccccc4)[nH]c(-c4ccccc4)cn-3c2=O)cc1OC [Compound 57] | 0.063 |  | 
48 | CSc1cccc(Cc2nc3c(Cc4ccccc4)[nH]c(-c4ccccc4)cn-3c2=O)c1 [Compound 58] | 0.47 |  | 
49 | O=c1c(Cc2ccc3c(c2)OCO3)nc2c(Cc3ccccc3)[nH]c(-c3ccccc3)cn1-2 [Compound 59] | 0.72 |  | 
50 | CN(C)Oc1cccc(Cc2nc3c(Cc4ccccc4)[nH]c(-c4ccccc4)cn-3c2=O)c1 [Compound 60] | 0.00038 |  | 
51 | CCOc1cccc(Cc2nc3c(Cc4ccccc4)[nH]c(-c4ccccc4)cn-3c2=O)c1 [Compound 61] | 0.49 |  | 
52 | COCCOc1cccc(Cc2nc3c(Cc4ccccc4)[nH]c(-c4ccccc4)cn-3c2=O)c1 [Compound 62] | 0.057 |  | 
53 | O=c1c(Cc2cnccn2)nc2c(Cc3ccccc3)[nH]c(-c3ccccc3)cn1-2 [Compound 84] | 0.003 |  | 
54 | Cn1c(Cc2nc3c(Cc4ccccc4)[nH]c(-c4ccccc4)cn-3c2=O)cc2sccc21 [Compound 85] | 0.038 |  | 
55 | O=c1c(C=Cc2ccccc2)nc2c(Cc3ccccc3)[nH]c(-c3ccccc3)cn1-2 [Compound 86] | 0.0002 |  | 
56 | O=c1c(Cc2ccco2)nc2c(Cc3ccccc3)[nH]c(-c3ccccc3)cn1-2 [Compound C-1, 8-benzyl-2-(furan-2-ylmethyl)-6-phenylimidazo[1,2-a]pyrazin-3(7H)-one, reference compound] | 1 |  | 
57 | Oc1ccc(Cc2nc3c(Cc4ccccc4)nc(-c4ccc(O)cc4)cn3c2O)cc1 [coelenterazine, reference compound] |  | 1 | 1
